From patent US7282522B2, “Hydroxamic acid derivatives and the method for preparing thereof” (Amorepacific Corporation, priority 2003, dated 2007)

Assays:
[1] = tested on: white guinea pigs; assay: Phototoxicity test (UVA irradiation); conditions: for Evaluation (phototoxicity): 1%(w/v) solution, UVA 15 J/cm^2; for Phototoxic index: 50 μl of 1%(w/v) solution, UVA 320~380 nm 15 J/cm^2, observed 24, 48 and 72 hours
[2] = tested on: rabbits; assay: Primary skin irritation test on animals (Draize P.I.I.); conditions: depilated back; for P.I.I. (Primary Irritation Index): 0.5 ml of 1% solution in 1,3-butylene glycol:ethanol 7:3, observed 24 or 72 hours later; for Evaluation (skin irritation): 1% solution, according to Draize's P.I.I.
[3] = target: T1, RARα (Homo sapiens, UniProt P10276); assay: RARE-luciferase reporter assay in transfected CV-1 cells (affinity to retinoic acid receptor), RARα; format: cell-based; conditions: treated 24 hours at final concentration 10^−4M, control group 1000
T1 construct: expressed in transfected cells; host or cells: CV-1 cells (ATCC)
T1 sequence (P10276 1-462): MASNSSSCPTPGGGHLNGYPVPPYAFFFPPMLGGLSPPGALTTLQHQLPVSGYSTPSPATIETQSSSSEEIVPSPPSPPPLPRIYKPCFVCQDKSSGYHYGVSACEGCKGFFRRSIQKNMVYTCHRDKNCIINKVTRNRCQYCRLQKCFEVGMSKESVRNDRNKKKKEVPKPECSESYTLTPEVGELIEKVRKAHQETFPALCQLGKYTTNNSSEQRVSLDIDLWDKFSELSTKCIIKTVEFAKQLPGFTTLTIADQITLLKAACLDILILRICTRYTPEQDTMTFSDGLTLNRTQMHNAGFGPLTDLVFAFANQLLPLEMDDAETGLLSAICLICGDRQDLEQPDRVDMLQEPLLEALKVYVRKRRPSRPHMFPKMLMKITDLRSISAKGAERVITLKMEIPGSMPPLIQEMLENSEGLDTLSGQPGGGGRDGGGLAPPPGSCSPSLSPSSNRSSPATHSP
Text: This example illustrates affinities of hydroxamic acid derivatives obtained in Examples 1 to 55 to retinoic acid receptor, in comparison with retinol and retinoic acid.
(§1) Receptor-expression plasmid, pECE-RARα and pECE-RARγ were engineered by the prior method (Mol. Cell. Biol. 1996, 16, 1138-1149). RARE-tk-Luc, i.e. RARE reporter was obtained by inserting RARE fragment from b-RARE-tk-CAT into pGL3 luciferase basic vector. CV-1 cells were obtained from ATCC (American Type Culture Collection).
CV-1 cells were seeded into 96-well microtiter plate at 5,000 cells per well and cultured in DMEM (Dulbecco's Modified Eagle's Media) supplemented with 2.5% fetal bovine serum. 24 Hours later, the cells were transfected with 10 ng of pECE-RARα, long of pECE-RARγ, 100 ng of reporter plasmid and 100 ng of β-galactosidase-expression vector, using LipofectaminPlus (GIBCO BRL, grand island, N.Y.). 24 Hours post-transfection, the cells were treated for 24 hours with hydroxamic acid derivatives of Examples 1˜55 or retinol at a final concentration of 10^−4M or with retinoic acid at a final concentration of 10^−5M, which is 10 times lower concentration than those of the former.

[4] = target: T2, RARγ (Homo sapiens, UniProt P13631); assay: RARE-luciferase reporter assay in transfected CV-1 cells (affinity to retinoic acid receptor), RARγ; format: cell-based; conditions: treated 24 hours at final concentration 10^−4M, control group 5000
T2 construct: expressed in transfected cells; host or cells: CV-1 cells (ATCC)
T2 sequence (P13631 1-454): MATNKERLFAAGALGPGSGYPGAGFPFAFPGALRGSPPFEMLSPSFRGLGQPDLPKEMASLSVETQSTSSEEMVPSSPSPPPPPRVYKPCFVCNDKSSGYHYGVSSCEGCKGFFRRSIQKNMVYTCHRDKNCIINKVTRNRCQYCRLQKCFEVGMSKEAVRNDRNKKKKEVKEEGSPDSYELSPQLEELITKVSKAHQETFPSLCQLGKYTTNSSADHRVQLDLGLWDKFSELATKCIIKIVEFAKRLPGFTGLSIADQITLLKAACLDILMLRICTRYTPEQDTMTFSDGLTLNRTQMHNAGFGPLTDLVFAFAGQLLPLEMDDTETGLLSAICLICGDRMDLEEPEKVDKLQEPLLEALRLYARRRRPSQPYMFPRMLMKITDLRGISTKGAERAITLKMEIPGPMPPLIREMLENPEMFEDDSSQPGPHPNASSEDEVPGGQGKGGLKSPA
Description: as §1
CV-1 cells were seeded into 96-well microtiter plate at 5,000 cells per well and cultured in DMEM (Dulbecco's Modified Eagle's Media) supplemented with 2.5% fetal bovine serum. 24 Hours later, the cells were transfected with 10 ng of pECE-RARα, long of pECE-RARγ, 100 ng of reporter plasmid and 100 ng of β-galactosidase-expression vector, using LipofectaminPlus (GIBCO BRL, grand island, N.Y.).

[5] = tested on: procollagen type I; assay: Effect on collagen biosynthesis (procollagen type I ELISA) in human fibroblasts; format: cell-based; conditions: 10^−4M, 24 hours, serum-free medium, relative to control group = 100
Description: Human fibroblasts were seeded into 24-well plate at 1×10^5 cells per well and then cultured to 90% of growth.
For each supernatant, procollagen production was measured with procollagen type I ELISA kit.

[6] = tested on: elastase; assay: Inhibition of elastase expression in human fibroblasts (ELISA kit); format: cell-based; conditions: 10^−4M, 24 hours, serum-free medium, relative to control group = 100
Description: (§2) For each culture fluid, elastase production was measured with elastase kit (commercialized by AmershamPharmacia Biotech). Firstly, the culture fluid was added to 96-well plate spread with primary elastase antibody and then antigen-antibody reaction was performed in an incubator for 3 hours. Later, chromophore-conjugated secondary antibody was added to the 96-well plate and then reacted for 15 minutes. Then, color former was added thereto, to induce development at room temperature for 15 minutes. 1M of sulfuric acid was added to stop the reaction. […] The color density depends on the progress of the reaction. The absorbance of the yellow 96-well plate was measured at 405 nm using absorptiometer. Elastase expression was calculated by the following equation 2. Herein, the absorbance of the culture fluid collected from the medium with no material treated was used as a control. Elastase expression (%)=(Absorbance of test group with said material treated/Absorbance of control group with no material treated)×100 [Equation 2]
Elastase expression was evaluated as a relative value, in consideration that the value of control group with no material treated is 100.

[7] = tested on: collagenase; assay: Inhibition of collagenase expression in human fibroblasts (ELISA kit); format: cell-based; conditions: 10^−4M, 24 hours, serum-free medium, relative to control group = 100
Description: Human fibroblasts were seeded into 96-well microtiter plate at 5,000 cells per well and then cultured to 90% of growth in DMEM (Dulbecco's Modified Eagle's Media) supplemented with 2.5% fetal bovine serum. Then, the fibroblastes were cultured in serum-free DMEM for 24 hours and treated for 24 hours with 10^−4M of hydroxamic acid derivatives of Examples 1˜55, retinol or retinoic acid in serum-free medium, and then the culture fluid was collected.
as §2, with “collagenase” for “elastase”, “Collagenase” for “Elastase”, “1.” for “2.”, “1]” for “2]”
Collagenase expression was evaluated as a relative value, in consideration that the value of control group with no material treated is 100.

Structure (SMILES): Cc1ccc(C(=O)Nc2ccc(C(=O)NO)cc2)cc1C [Example 9, N-[4-(N-hydroxycarbamoyl)phenyl][3,4-dimethylphenyl]carboxyamide]
- Evaluation (phototoxicity) [1]: No phototoxicity (lower value than 0.5, criterion value to be estimated as no phototoxicity)
- Phototoxic index [1]: 0
- P.I.I. (Primary Irritation Index) [2]: 0.470
- Evaluation (skin irritation) [2]: No irritation
- Luciferase activity RARα [3]: 12000
- Luciferase activity RARγ [4]: 12000
- Collagen biosynthesis (%) [5]: 120%
- Elastase expression (%) [6]: 67%
- Collagenase expression (%) [7]: 65%

Structure (SMILES): CCc1ccc(NC(=O)c2ccc(C(=O)NO)cc2)cc1 [Example 37, [4-(N-hydroxycarbamoyl)phenyl]-N-[4-ethylphenyl]carboxyamide]
- Evaluation (phototoxicity) [1]: No phototoxicity (lower value than 0.5, criterion value to be estimated as no phototoxicity)
- Phototoxic index [1]: 0
- P.I.I. (Primary Irritation Index) [2]: 0.456
- Evaluation (skin irritation) [2]: No irritation
- Luciferase activity RARα [3]: 19000
- Luciferase activity RARγ [4]: 10300
- Collagen biosynthesis (%) [5]: 121%
- Elastase expression (%) [6]: 80%
- Collagenase expression (%) [7]: 70%

Structure (SMILES): CN(O)C(=O)c1ccc(NC(=O)C23CC4CC(CC(C4)C2)C3)cc1 [Example 11, adamantyl-N-[4-(N-hydroxy-N-methylcarbamoyl)phenyl]carboxyamide]
- Evaluation (phototoxicity) [1]: No phototoxicity (lower value than 0.5, criterion value to be estimated as no phototoxicity)
- Phototoxic index [1]: 0
- P.I.I. (Primary Irritation Index) [2]: 0.375
- Evaluation (skin irritation) [2]: No irritation
- Luciferase activity RARα [3]: 11600
- Luciferase activity RARγ [4]: 10000
- Collagen biosynthesis (%) [5]: 110%
- Elastase expression (%) [6]: 65%
- Collagenase expression (%) [7]: 81%

Structure (SMILES): CC(C)c1ccc(N(C)C(=O)c2ccc(C(=O)NO)cc2)cc1 [Example 50, [4-(N-hydroxycarbamoyl)phenyl]-N-methyl-N-[4-isopropylphenyl]carboxyamide]
- Evaluation (phototoxicity) [1]: No phototoxicity (lower value than 0.5, criterion value to be estimated as no phototoxicity)
- Phototoxic index [1]: 0
- P.I.I. (Primary Irritation Index) [2]: 0.234
- Evaluation (skin irritation) [2]: No irritation
- Luciferase activity RARα [3]: 12300
- Luciferase activity RARγ [4]: 11212
- Collagen biosynthesis (%) [5]: 110%
- Elastase expression (%) [6]: 78%
- Collagenase expression (%) [7]: 80%

Structure (SMILES): CC(C)c1ccc(C(=O)Nc2ccc(C(=O)NO)cc2)cc1 [Example 6, N-[4-(N-hydroxycarbamoyl)phenyl][4-isopropylphenyl]carboxyamide]
- Evaluation (phototoxicity) [1]: No phototoxicity (lower value than 0.5, criterion value to be estimated as no phototoxicity)
- Phototoxic index [1]: 0
- P.I.I. (Primary Irritation Index) [2]: 0.315
- Evaluation (skin irritation) [2]: No irritation
- Luciferase activity RARα [3]: 14500
- Luciferase activity RARγ [4]: 12300
- Collagen biosynthesis (%) [5]: 124%
- Elastase expression (%) [6]: 79%
- Collagenase expression (%) [7]: 85%

Structure (SMILES): Cc1ccc(NC(=O)c2ccc(C(=O)NO)cc2)cc1 [Example 35, [4-(N-hydroxycarbamoyl)phenyl]-N-[4-methylphenyl]carboxyamide]
- Evaluation (phototoxicity) [1]: No phototoxicity (lower value than 0.5, criterion value to be estimated as no phototoxicity)
- Phototoxic index [1]: 0
- P.I.I. (Primary Irritation Index) [2]: 0.245
- Evaluation (skin irritation) [2]: No irritation
- Luciferase activity RARα [3]: 14500
- Luciferase activity RARγ [4]: 11300
- Collagen biosynthesis (%) [5]: 111%
- Elastase expression (%) [6]: 71%
- Collagenase expression (%) [7]: 90%

Structure (SMILES): CCCc1ccc(NC(=O)c2ccc(C(=O)NO)cc2)cc1 [Example 38, [4-(N-hydroxycarbamoyl)phenyl]-N-[4-propylphenyl]carboxyamide]
- Evaluation (phototoxicity) [1]: No phototoxicity (lower value than 0.5, criterion value to be estimated as no phototoxicity)
- Phototoxic index [1]: 0
- P.I.I. (Primary Irritation Index) [2]: 0.567
- Evaluation (skin irritation) [2]: No irritation
- Luciferase activity RARα [3]: 17500
- Luciferase activity RARγ [4]: 10400
- Collagen biosynthesis (%) [5]: 109%
- Elastase expression (%) [6]: 69%
- Collagenase expression (%) [7]: 87%

Structure (SMILES): CC1=C(/C=C/C(C)=C/C=C/C(C)=C/CO)C(C)(C)CCC1 [Retinol, retinol, reference compound]
- Luciferase activity RARα [3]: 2500
- Luciferase activity RARγ [4]: 6000
- Collagen biosynthesis (%) [5]: 120%
- Elastase expression (%) [6]: 88%
- Collagenase expression (%) [7]: 85%

Structure (SMILES): CC1=C(/C=C/C(C)=C/C=C/C(C)=C/C(=O)O)C(C)(C)CCC1 [Retinoic acid, retinoic acid, reference compound]
- P.I.I. (Primary Irritation Index) [2]: 1.830
- Evaluation (skin irritation) [2]: Light irritation
- Collagen biosynthesis (%) [5]: 125%
- Elastase expression (%) [6]: 68%
- Collagenase expression (%) [7]: 60%

Structure (SMILES): CN(O)C(=O)c1ccc(C(=O)NC23CC4CC(CC(C4)C2)C3)cc1 [Example 44, N-adamantyl [4-(N-hydroxy-N-methylcarbamoyl)phenyl]carboxyamide]
- Evaluation (phototoxicity) [1]: No phototoxicity (lower value than 0.5, criterion value to be estimated as no phototoxicity)
- Luciferase activity RARα [3]: 23100
